Results taken from the NIST ThermoML archive (doi:10.1021/acs.jced.9b00507).

Test: xn = mol fraction of the nth substance listed
Details: 100 kPa, Liquid; for viscosity: Concentric cylinders viscometry; for mass density: Vibrating tube method

CCCCCCn1cc[n+](C)c1.O=[N+]([O-])[O-] [1-hexyl-3-methylimidazolium nitrate] + CCCCCCCCCCO
Details | mass density [kg/m3] | viscosity [mPa·s]
293.15 K, x1 = 0.0818 | 855.4 | 18.62
293.15 K, x1 = 0.1583 | 879.2 | 24.27
293.15 K, x1 = 0.2414 | 904.7 | 33.34
293.15 K, x1 = 0.3482 | 937.1 | 50.7
293.15 K, x1 = 0.4414 | 964.8 | 73.79
293.15 K, x1 = 0.5593 | 999.2 | 119.12
293.15 K, x1 = 0.6481 | 1024.6 | 173.38
293.15 K, x1 = 0.7414 | 1050.8 | 261.82
293.15 K, x1 = 0.8496 | 1080.4 | 419.76
293.15 K, x1 = 0.9402 | 1104.7 | 625.17
293.15 K, x1 = 1 | 1120.3 | 804.17
298.15 K, x1 = 0.0818 | 851.9 | 15
298.15 K, x1 = 0.1583 | 875.7 | 18.75
298.15 K, x1 = 0.2414 | 901.3 | 23.93
298.15 K, x1 = 0.3482 | 933.6 | 33.81
298.15 K, x1 = 0.4414 | 961.4 | 47.42
298.15 K, x1 = 0.5593 | 995.8 | 74.3
298.15 K, x1 = 0.6481 | 1021.3 | 111.69
298.15 K, x1 = 0.7414 | 1047.5 | 171
298.15 K, x1 = 0.8496 | 1077.3 | 276.06
298.15 K, x1 = 0.9402 | 1101.7 | 417.45
298.15 K, x1 = 1 | 1117.5 | 545.25
303.15 K, x1 = 0.0818 | 848.4 | 11.86
303.15 K, x1 = 0.1583 | 872.2 | 14.39
303.15 K, x1 = 0.2414 | 897.7 | 17.58
303.15 K, x1 = 0.3482 | 930 | 22.91
303.15 K, x1 = 0.4414 | 957.8 | 30.27
303.15 K, x1 = 0.5593 | 992.2 | 45.39
303.15 K, x1 = 0.6481 | 1017.7 | 65.77
303.15 K, x1 = 0.7414 | 1044 | 98.7
303.15 K, x1 = 0.8496 | 1073.9 | 168.66
303.15 K, x1 = 0.9402 | 1098.4 | 267.65
303.15 K, x1 = 1 | 1114.3 | 369.14
308.15 K, x1 = 0.0818 | 845 | 9.51
308.15 K, x1 = 0.1583 | 868.7 | 10.86
308.15 K, x1 = 0.2414 | 894.2 | 12.85
308.15 K, x1 = 0.3482 | 926.4 | 16.03
308.15 K, x1 = 0.4414 | 954.2 | 20.04
308.15 K, x1 = 0.5593 | 988.6 | 28.44
308.15 K, x1 = 0.6481 | 1014.2 | 39.63
308.15 K, x1 = 0.7414 | 1040.5 | 60.67
308.15 K, x1 = 0.8496 | 1070.5 | 108.57
308.15 K, x1 = 0.9402 | 1095.1 | 183.87
308.15 K, x1 = 1 | 1111.1 | 257.59
313.15 K, x1 = 0.0818 | 841.4 | 7.41
313.15 K, x1 = 0.1583 | 865.1 | 8.15
313.15 K, x1 = 0.2414 | 890.6 | 8.97
313.15 K, x1 = 0.3482 | 922.8 | 10.16
313.15 K, x1 = 0.4414 | 950.5 | 11.94
313.15 K, x1 = 0.5593 | 984.9 | 16.52
313.15 K, x1 = 0.6481 | 1010.5 | 23.5
313.15 K, x1 = 0.7414 | 1036.9 | 35.97
313.15 K, x1 = 0.8496 | 1067 | 67.47
313.15 K, x1 = 0.9402 | 1091.7 | 123.98
313.15 K, x1 = 1 | 1107.8 | 185.67
318.15 K, x1 = 0.0818 | 837.9 | 5.98
318.15 K, x1 = 0.1583 | 861.6 | 6.21
318.15 K, x1 = 0.2414 | 887 | 6.44
318.15 K, x1 = 0.3482 | 919.2 | 7.1
318.15 K, x1 = 0.4414 | 946.9 | 8.12
318.15 K, x1 = 0.5593 | 981.4 | 9.93
318.15 K, x1 = 0.6481 | 1007 | 13.43
318.15 K, x1 = 0.7414 | 1033.5 | 22.34
318.15 K, x1 = 0.8496 | 1063.7 | 47.97
318.15 K, x1 = 0.9402 | 1088.5 | 92.14
318.15 K, x1 = 1 | 1104.7 | 140.18
323.15 K, x1 = 0.0818 | 834.4 | 4.95
323.15 K, x1 = 0.1583 | 858 | 5.14
323.15 K, x1 = 0.2414 | 883.4 | 5.28
323.15 K, x1 = 0.3482 | 915.6 | 5.6
323.15 K, x1 = 0.4414 | 943.3 | 6.07
323.15 K, x1 = 0.5593 | 977.8 | 7.03
323.15 K, x1 = 0.6481 | 1003.5 | 9.04
323.15 K, x1 = 0.7414 | 1030 | 15.67
323.15 K, x1 = 0.8496 | 1060.4 | 36.3
323.15 K, x1 = 0.9402 | 1085.3 | 73.7
323.15 K, x1 = 1 | 1101.6 | 110.94

CCCCCCn1cc[n+](C)c1.O=[N+]([O-])[O-] [1-hexyl-3-methylimidazolium nitrate] + CCCCCCCO
Details | mass density [kg/m3] | viscosity [mPa·s]
293.15 K, x1 = 0.0812 | 857.5 | 12.74
293.15 K, x1 = 0.1608 | 889.6 | 22.91
293.15 K, x1 = 0.2395 | 919 | 36.98
293.15 K, x1 = 0.3493 | 956.7 | 67.76
293.15 K, x1 = 0.4392 | 985 | 100.46
293.15 K, x1 = 0.5749 | 1023.9 | 177.42
293.15 K, x1 = 0.6491 | 1043.4 | 234.42
293.15 K, x1 = 0.7398 | 1065.6 | 338.84
293.15 K, x1 = 0.8496 | 1090.2 | 508.16
293.15 K, x1 = 0.9381 | 1108.4 | 677.64
293.15 K, x1 = 1 | 1120.3 | 804.17
298.15 K, x1 = 0.0812 | 853.9 | 10.09
298.15 K, x1 = 0.1608 | 885.9 | 16.67
298.15 K, x1 = 0.2395 | 915.3 | 25.12
298.15 K, x1 = 0.3493 | 953.1 | 41.88
298.15 K, x1 = 0.4392 | 981.5 | 61.38
298.15 K, x1 = 0.5749 | 1020.5 | 109.9
298.15 K, x1 = 0.6491 | 1040 | 150.66
298.15 K, x1 = 0.7398 | 1062.2 | 219.28
298.15 K, x1 = 0.8496 | 1087.1 | 334.2
298.15 K, x1 = 0.9381 | 1105.4 | 460.97
298.15 K, x1 = 1 | 1117.5 | 545.25
303.15 K, x1 = 0.0812 | 850.3 | 7.94
303.15 K, x1 = 0.1608 | 882.2 | 12.19
303.15 K, x1 = 0.2395 | 911.5 | 17.82
303.15 K, x1 = 0.3493 | 949.3 | 28.31
303.15 K, x1 = 0.4392 | 977.7 | 40.09
303.15 K, x1 = 0.5749 | 1016.8 | 69.18
303.15 K, x1 = 0.6491 | 1036.3 | 94.19
303.15 K, x1 = 0.7398 | 1058.6 | 136.14
303.15 K, x1 = 0.8496 | 1083.5 | 213.3
303.15 K, x1 = 0.9381 | 1102.1 | 303.7
303.15 K, x1 = 1 | 1114.3 | 369.14
308.15 K, x1 = 0.0812 | 846.5 | 6.64
308.15 K, x1 = 0.1608 | 878.3 | 9.57
308.15 K, x1 = 0.2395 | 907.7 | 13.27
308.15 K, x1 = 0.3493 | 945.5 | 19.95
308.15 K, x1 = 0.4392 | 973.9 | 27.99
308.15 K, x1 = 0.5749 | 1013 | 46.34
308.15 K, x1 = 0.6491 | 1032.6 | 61.8
308.15 K, x1 = 0.7398 | 1054.9 | 91.83
308.15 K, x1 = 0.8496 | 1080 | 147.57
308.15 K, x1 = 0.9381 | 1098.7 | 206.54
308.15 K, x1 = 1 | 1111.1 | 257.59
313.15 K, x1 = 0.0812 | 842.8 | 5.43
313.15 K, x1 = 0.1608 | 874.6 | 7.36
313.15 K, x1 = 0.2395 | 903.9 | 9.99
313.15 K, x1 = 0.3493 | 941.7 | 14.27
313.15 K, x1 = 0.4392 | 970.1 | 19.02
313.15 K, x1 = 0.5749 | 1009.3 | 31.62
313.15 K, x1 = 0.6491 | 1028.9 | 42.17
313.15 K, x1 = 0.7398 | 1051.3 | 62.32
313.15 K, x1 = 0.8496 | 1076.5 | 101.4
313.15 K, x1 = 0.9381 | 1095.3 | 142.89
313.15 K, x1 = 1 | 1107.8 | 185.67
318.15 K, x1 = 0.0812 | 839.1 | 4.59
318.15 K, x1 = 0.1608 | 870.8 | 6.17
318.15 K, x1 = 0.2395 | 900.2 | 7.85
318.15 K, x1 = 0.3493 | 937.9 | 10.99
318.15 K, x1 = 0.4392 | 966.4 | 14.45
318.15 K, x1 = 0.5749 | 1005.6 | 22.7
318.15 K, x1 = 0.6491 | 1025.4 | 30.06
318.15 K, x1 = 0.7398 | 1047.9 | 43.55
318.15 K, x1 = 0.8496 | 1073.1 | 71.58
318.15 K, x1 = 0.9381 | 1092.1 | 106.41
318.15 K, x1 = 1 | 1104.7 | 140.18
323.15 K, x1 = 0.0812 | 835.3 | 3.84
323.15 K, x1 = 0.1608 | 867 | 5.01
323.15 K, x1 = 0.2395 | 896.4 | 6.43
323.15 K, x1 = 0.3493 | 934.2 | 8.89
323.15 K, x1 = 0.4392 | 962.6 | 11.59
323.15 K, x1 = 0.5749 | 1001.9 | 17.99
323.15 K, x1 = 0.6491 | 1021.8 | 23.44
323.15 K, x1 = 0.7398 | 1044.4 | 34.2
323.15 K, x1 = 0.8496 | 1069.8 | 54.87
323.15 K, x1 = 0.9381 | 1088.9 | 82.79
323.15 K, x1 = 1 | 1101.6 | 110.94
